In PubChem BioAssay AID2060512 (Molecular Pharmacology Branch, DTP, NCI, 2025):

Tested on: 186277-243-T-J2-PDC complex spheroid viability
Experiment: Anticancer human tumor 186277-243-T-J2-PDC patient-derived colon adenocarcinoma cell line growth inhibition [GQUAD]
Conditions: for IC50: curve of first compound; for viability, T/C: stronger effect = lower value
Procedure, shortened: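 Multi-cell-type spheroids of tumor cells with HUVEC and mesenchymal stem cells, treated with drug combinations. Concentrations descend in half-log steps from near clinical Cmax, or from 10 microM where Cmax is unknown; viability read-out.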

[1] = second compound 0.0316 µM, first compound 0.000999 µM
[2] = second compound 0.0316 µM, first compound 0.00316 µM
[3] = second compound 0.0316 µM, first compound 0.00999 µM
[4] = second compound 0.0316 µM, first compound 0.0316 µM
[5] = second compound 0.0316 µM, first compound 0.0999 µM
[6] = second compound 0.0316 µM, first compound 0.316 µM
[7] = second compound 0.1 µM, first compound 0.000999 µM
[8] = second compound 0.1 µM, first compound 0.00316 µM
[9] = second compound 0.1 µM, first compound 0.00999 µM
[10] = second compound 0.1 µM, first compound 0.0316 µM
[11] = second compound 0.1 µM, first compound 0.0999 µM
[12] = second compound 0.1 µM, first compound 0.316 µM
[13] = second compound 0.316 µM, first compound 0.000999 µM
[14] = second compound 0.316 µM, first compound 0.00316 µM
[15] = second compound 0.316 µM, first compound 0.00999 µM
[16] = second compound 0.316 µM, first compound 0.0316 µM
[17] = second compound 0.316 µM, first compound 0.0999 µM
[18] = second compound 0.316 µM, first compound 0.316 µM
[19] = second compound 1 µM, first compound 0.000999 µM
[20] = second compound 1 µM, first compound 0.00316 µM
[21] = second compound 1 µM, first compound 0.00999 µM
[22] = second compound 1 µM, first compound 0.0316 µM
[23] = second compound 1 µM, first compound 0.0999 µM
[24] = second compound 1 µM, first compound 0.316 µM
[25] = second compound 3.16 µM, first compound 0.000999 µM
[26] = second compound 3.16 µM, first compound 0.00316 µM
[27] = second compound 3.16 µM, first compound 0.00999 µM
[28] = second compound 3.16 µM, first compound 0.0316 µM
[29] = second compound 3.16 µM, first compound 0.0999 µM
[30] = second compound 3.16 µM, first compound 0.316 µM
[31] = second compound 10 µM, first compound 0.000999 µM
[32] = second compound 10 µM, first compound 0.00316 µM
[33] = second compound 10 µM, first compound 0.00999 µM
[34] = second compound 10 µM, first compound 0.0316 µM
[35] = second compound 10 µM, first compound 0.0999 µM
[36] = second compound 10 µM, first compound 0.316 µM
[37] = second compound 0.0316 µM, first compound 0.1 µM
[38] = second compound 0.0316 µM, first compound 1 µM
[39] = second compound 0.0316 µM, first compound 3.16 µM
[40] = second compound 0.0316 µM, first compound 10 µM
[41] = second compound 0.1 µM, first compound 0.1 µM
[42] = second compound 0.1 µM, first compound 1 µM
[43] = second compound 0.1 µM, first compound 3.16 µM
[44] = second compound 0.1 µM, first compound 10 µM
[45] = second compound 0.316 µM, first compound 0.1 µM
[46] = second compound 0.316 µM, first compound 1 µM
[47] = second compound 0.316 µM, first compound 3.16 µM
[48] = second compound 0.316 µM, first compound 10 µM
[49] = second compound 1 µM, first compound 0.1 µM
[50] = second compound 1 µM, first compound 1 µM
[51] = second compound 1 µM, first compound 3.16 µM
[52] = second compound 1 µM, first compound 10 µM
[53] = second compound 3.16 µM, first compound 0.1 µM
[54] = second compound 3.16 µM, first compound 1 µM
[55] = second compound 3.16 µM, first compound 3.16 µM
[56] = second compound 3.16 µM, first compound 10 µM
[57] = second compound 10 µM, first compound 0.1 µM
[58] = second compound 10 µM, first compound 1 µM
[59] = second compound 10 µM, first compound 3.16 µM
[60] = second compound 10 µM, first compound 10 µM
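Note: spheroids exposed to drugs for 7 days.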
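Throughout, for viability, T/C: 100% = DMSO vehicle control viability.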

CCc1c2c(nc3ccc(O)cc13)-c1cc3c(c(=O)n1C2)COC(=O)[C@]3(O)CC + CN(C)c1ccc(Nc2c3ccc(NC(=O)CCN4CCCC4)cc3nc3cc(NC(=O)CCN4CCCC4)ccc23)cc1
IC50 (second compound 0.0316 µM): 5.9 nM | IC50 (second compound 0.1 µM): 6.26 nM | IC50 (second compound 0.316 µM): 6.31 nM | IC50 (second compound 1 µM): 5.78 nM | IC50 (second compound 3.16 µM): 7.75 nM | IC50 (second compound 10 µM): 7.5 nM | viability, T/C [1]: 97.1% | viability, T/C [2]: 62.1% | viability, T/C [3]: 40.6% | viability, T/C [4]: 23.8% | viability, T/C [5]: 17.1% | viability, T/C [6]: 13.1% | viability, T/C [7]: 99.8% | viability, T/C [8]: 60.1% | viability, T/C [9]: 44.3% | viability, T/C [10]: 25.8% | viability, T/C [11]: 15.8% | viability, T/C [12]: 11.6% | viability, T/C [13]: 107% | viability, T/C [14]: 69% | viability, T/C [15]: 36% | viability, T/C [16]: 23.7% | viability, T/C [17]: 15.7% | viability, T/C [18]: 11.1% | viability, T/C [19]: 82.9% | viability, T/C [20]: 59.7% | viability, T/C [21]: 41.6% | viability, T/C [22]: 25.4% | viability, T/C [23]: 15.8% | viability, T/C [24]: 10.4% | viability, T/C [25]: 92.8% | viability, T/C [26]: 63.4% | viability, T/C [27]: 49.4% | viability, T/C [28]: 27.1% | viability, T/C [29]: 16.3% | viability, T/C [30]: 8.68% | viability, T/C [31]: 83% | viability, T/C [32]: 63.1% | viability, T/C [33]: 45.5% | viability, T/C [34]: 31.4% | viability, T/C [35]: 16.4% | viability, T/C [36]: 9.38%

Cc1[nH]c2ccccc2c1CCNCc1ccc(/C=C/C(=O)NO)cc1 + CN(C)c1ccc(Nc2c3ccc(NC(=O)CCN4CCCC4)cc3nc3cc(NC(=O)CCN4CCCC4)ccc23)cc1
IC50 (second compound 0.0316 µM): 58.1 nM | IC50 (second compound 0.1 µM): 55.6 nM | IC50 (second compound 0.316 µM): 58.8 nM | IC50 (second compound 1 µM): 63.2 nM | IC50 (second compound 3.16 µM): 58.3 nM | IC50 (second compound 10 µM): 58.1 nM | viability, T/C [1]: 99.5% | viability, T/C [2]: 86.5% | viability, T/C [3]: 96.7% | viability, T/C [4]: 92.6% | viability, T/C [5]: 12.1% | viability, T/C [6]: 0.65% | viability, T/C [7]: 115% | viability, T/C [8]: 93.7% | viability, T/C [9]: 80.6% | viability, T/C [10]: 84.6% | viability, T/C [11]: 14.9% | viability, T/C [12]: 0.86% | viability, T/C [13]: 76.5% | viability, T/C [14]: 96.9% | viability, T/C [15]: 91.7% | viability, T/C [16]: 87.8% | viability, T/C [17]: 17.7% | viability, T/C [18]: 2.93% | viability, T/C [19]: 86.3% | viability, T/C [20]: 94.6% | viability, T/C [21]: 87.4% | viability, T/C [22]: 107% | viability, T/C [23]: 21% | viability, T/C [24]: 1.2% | viability, T/C [25]: 93% | viability, T/C [26]: 93% | viability, T/C [27]: 96% | viability, T/C [28]: 92% | viability, T/C [29]: 13.1% | viability, T/C [30]: 1.46% | viability, T/C [31]: 82.8% | viability, T/C [32]: 92.6% | viability, T/C [33]: 97.2% | viability, T/C [34]: 96.2% | viability, T/C [35]: 12.4% | viability, T/C [36]: 0.74%

C=CC(=O)N1CCN(c2nc(=O)n(-c3c(C)ccnc3C(C)C)c3nc(-c4c(O)cccc4F)c(F)cc23)C(C)C1 (stereo not drawn) + CN(C)c1ccc(Nc2c3ccc(NC(=O)CCN4CCCC4)cc3nc3cc(NC(=O)CCN4CCCC4)ccc23)cc1
IC50 (second compound 0.0316 µM): > 10000 nM | IC50 (second compound 0.1 µM): > 10000 nM | IC50 (second compound 0.316 µM): > 10000 nM | IC50 (second compound 1 µM): > 10000 nM | IC50 (second compound 3.16 µM): > 10000 nM | IC50 (second compound 10 µM): > 10000 nM | viability, T/C [4]: 105% | viability, T/C [37]: 85.5% | viability, T/C [6]: 90.1% | viability, T/C [38]: 81.7% | viability, T/C [39]: 104% | viability, T/C [40]: 96.6% | viability, T/C [10]: 111% | viability, T/C [41]: 96.1% | viability, T/C [12]: 101% | viability, T/C [42]: 71.9% | viability, T/C [43]: 111% | viability, T/C [44]: 88.3% | viability, T/C [16]: 104% | viability, T/C [45]: 94.6% | viability, T/C [18]: 87.3% | viability, T/C [46]: 90.5% | viability, T/C [47]: 92.6% | viability, T/C [48]: 95.2% | viability, T/C [22]: 93.9% | viability, T/C [49]: 89.8% | viability, T/C [24]: 88.4% | viability, T/C [50]: 101% | viability, T/C [51]: 105% | viability, T/C [52]: 97.3% | viability, T/C [28]: 95.3% | viability, T/C [53]: 87.2% | viability, T/C [30]: 97.6% | viability, T/C [54]: 89.8% | viability, T/C [55]: 101% | viability, T/C [56]: 95.3% | viability, T/C [34]: 91.7% | viability, T/C [57]: 80.2% | viability, T/C [36]: 98.4% | viability, T/C [58]: 96% | viability, T/C [59]: 111% | viability, T/C [60]: 88.1%

CC1COCCN1c1cc(-c2ccnn2C)c2ccnc(-c3ccn[nH]3)c2n1 (stereo not drawn) + Cc1[nH]c2ccc(F)cc2c1-c1nc2c3cccnc3c3ncccc3c2[nH]1
IC50 (second compound 0.0316 µM): 50.5 nM | IC50 (second compound 0.1 µM): 48.5 nM | IC50 (second compound 0.316 µM): 50.6 nM | IC50 (second compound 1 µM): < 31.6 nM | IC50 (second compound 3.16 µM): 40.4 nM | IC50 (second compound 10 µM): 33.6 nM | viability, T/C [4]: 74.1% | viability, T/C [37]: 15% | viability, T/C [6]: 7.54% | viability, T/C [38]: 5% | viability, T/C [39]: 5.42% | viability, T/C [40]: 5.79% | viability, T/C [10]: 70.8% | viability, T/C [41]: 15% | viability, T/C [12]: 8.57% | viability, T/C [42]: 5.57% | viability, T/C [43]: 6.67% | viability, T/C [44]: 6.18% | viability, T/C [16]: 72.2% | viability, T/C [45]: 17.8% | viability, T/C [18]: 7.48% | viability, T/C [46]: 5.56% | viability, T/C [47]: 6.42% | viability, T/C [48]: 6.89% | viability, T/C [22]: 49% | viability, T/C [49]: 13.3% | viability, T/C [24]: 6.83% | viability, T/C [50]: 5.52% | viability, T/C [51]: 7.58% | viability, T/C [52]: 7.98% | viability, T/C [28]: 59.7% | viability, T/C [53]: 13.9% | viability, T/C [30]: 7.5% | viability, T/C [54]: 6.04% | viability, T/C [55]: 7.48% | viability, T/C [56]: 7.66% | viability, T/C [34]: 52.1% | viability, T/C [57]: 11.5% | viability, T/C [36]: 8.02% | viability, T/C [58]: 5.7% | viability, T/C [59]: 5.81% | viability, T/C [60]: 6.85%
